# In patent publication US10577400B2, “Method of manufacturing recombinant lectin protein and recombinant lectin protein manufactured by using the same” (NATIONAL MARINE BIODIVERSITY INSTITUTE OF KOREA, priority 2017, dated 2020):
# Where two headings read alike, the source gives them in different places. Marks after values point to notes of the source that are not given here.
# Tests used:
# Native BPL3 = assay: Inhibition of hemagglutination activity of Native BPL3 by sugars; assay type: cell-based, Bryopsis plumosa
# rD2BPL3 = assay: Inhibition of hemagglutination activity of rD2BPL3 (refolded rBPL3) by sugars; assay type: cell-based, Bryopsis plumosa; conditions: for Minimum inhibitory concentration: inhibition of hemagglutination activity of rD2BPL3; for Concentration at which hemagglutination activity of rBPL3 was inhibited: refolded rBPL3, FIG. 8, running text
# Method: FIG. 8 is a photograph showing that the activity of the refolded rBPL3 is inhibited by N-acetyl D-glucosamine and N-acetyl D-glactosamine. Referring to FIG. 8, experiments on inhibition of hemagglutination activity for 10 kinds of sugars including GlcNAc and GaINAc which inhibited hemagglutination activity of Native BPL3 were conducted.
# Fetuin = assay: cell-based or functional assay
# [1] = Glycan binding specificity, RayBio Glycan Array 100
# Method: Affinity with glycans was measured using RayBio® Glycan Array 100. The rBPL3 and the Native BPL3 were conjugated with biotin and then dialyzed to remove unreacted biotin.
# FIG. 9 is a graph for comparing glycan binding specificities of Native BPL3, rD1BPL3, and rD2BPL3.
# [2] = biotin-conjugated lectin, FIG. 9
Molecule,Minimum inhibitory concentration (Native BPL3),Minimum inhibitory concentration (rD2BPL3),also measured
OC[C@H]1O[C@@H](O[C@H]2[C@H](O)[C@@H](O)[C@H](O)O[C@@H]2CO)[C@H](O)[C@@H](O)[C@H]1O [β-Lactose],NI (the absence of inhibition at 500 mM),NI (the absence of inhibition at 500 mM),–
O=C[C@H](O)[C@@H](O)[C@@H](O)[C@H](O)CO [d-Galactose],NI (the absence of inhibition at 500 mM),NI (the absence of inhibition at 500 mM),–
O=C(CO)[C@@H](O)[C@H](O)[C@H](O)CO [d-Fructose],NI (the absence of inhibition at 500 mM),NI (the absence of inhibition at 500 mM),–
O=C[C@@H](O)[C@@H](O)[C@H](O)[C@H](O)CO [d-Mannose],NI (the absence of inhibition at 500 mM),NI (the absence of inhibition at 500 mM),Minimum inhibitory concentration (Native BPL3; listed as α-Man): not inhibited; Minimum inhibitory concentration (rD2BPL3; listed as α-Man): not inhibited
C[C@@H]1OC(O)[C@@H](O)[C@H](O)[C@@H]1O (stereo partly drawn) [1-Fucose],NI (the absence of inhibition at 500 mM),NI (the absence of inhibition at 500 mM),–
Native BPL3 (Bryopsis plumosa lectin 3 derived from Bryopsis plumosa),–,–,Minimum inhibitory concentration (inhibition of hemagglutination activity) (Fetuin): 19.5 µg/mL
OC[C@H]1O[C@H](O[C@H]2[C@H](O)[C@@H](O)[C@H](O)O[C@@H]2CO)[C@H](O)[C@@H](O)[C@@H]1O [d-Maltose],NI (the absence of inhibition at 500 mM),NI (the absence of inhibition at 500 mM),–
CC(=O)N[C@H]1C(O)O[C@H](CO)[C@@H](O)[C@@H]1O (stereo partly drawn) [N-acetyl-d-glucosamine],125 mM,62.5 mM,Concentration at which hemagglutination activity of rBPL3 was inhibited (rD2BPL3): 125 mM
CC(=O)N[C@H]1C(O)O[C@H](CO)[C@H](O)[C@@H]1O (stereo partly drawn) [N-acetyl-d-galactosamine],62.5 mM,31.25 mM,Concentration at which hemagglutination activity of rBPL3 was inhibited (rD2BPL3): 62.5 mM
O=C[C@H](O)[C@@H](O)[C@H](O)[C@H](O)CO [d-Glucose],NI (the absence of inhibition at 500 mM),NI (the absence of inhibition at 500 mM),–
"Fetuin (protein, UniProt P12763 19-359, looked up) Alpha-2-HS-glycoprotein: IPLDPVAGYKEPACDDPDTEQAALAAVDYINKHLPRGYKHTLNQIDSVKVWPRRPTGEVYDIEIDTLETTCHVLDPTPLANCSVRQQTQHAVEGDCDIHVLKQDGQFSVLFTKCDSSPDSAEDVRKLCPDCPLLAPLNDSRVVHAVEVALATFNAESNGSYLQLVEISRAQFVPLPVSVSVEFAVAATDCIAKEVVDPTKCNLLAEKQYGFCKGSVIQKALGGEDVRVTCTLFQTQPVIPQPQPDGAEAEAPSAVPDAAGPTPSAAGPPVASVVVGPSVVAVPLPLHRAHYDLRHTFSGVASVESSSGEAFHVGKTPIVGQPSIPGGPVRLCPGRIRYFKI",–,–,Minimum inhibitory concentration (Native BPL3; concentration in μg/mL): 19.53^§ μg/mL; Minimum inhibitory concentration (rD2BPL3; concentration in μg/mL): 4.88^§ μg/mL
"rD2BPL3 (recombinant BPL3 lectin obtained by the gene having the repeating structure) (protein, part only; not given: spacer and vector tag, not shown: small tags and cut ends) chain, part: TDVGSVQVRGLGDRSSCPVKPWTTAQTSAREKVVSVKFDIPYSSTPKVALSLSGMDMDTKYNTRINTSVENLTNEGFDLKVGVWCNTYAYMLDVTYVVVPAPYAAGTDVGSVQVRGLGDRSSCPVKPWTTAQTSAREKVVSVKFDIPYSSTPKVALSLSGMDMDTKYNTRINTSVENLTNEGFDLKVGVWCNTYAYMLDVTYVVVPAPYAAG",–,–,Minimum inhibitory concentration (inhibition of hemagglutination activity) (Fetuin): 4.88 µg/mL
"Native BPL3: BPL3 (Bryopsis plumosa lectin) derived from bryopsis plumosa, comparative target (protein, bryopsis plumose-derived BPL3 gene, BPL3 (Bryopsis plumosa lectin) derived from bryopsis plumosa, comparative target) TDVGSVQVRGLGDRSSCPVKPWTTAQTSAREKVVSVKFDIPYSSTPKVALSLSGMDMDTKYNTRINTSVENLTNEGFDLKVGVWCNTYAYMLDVTYVVVPAPYAAG",–,–,"Glycan giving a strong signal [1, 2]: strong signal for a glycan of Gal-β-1,3-GaINAc-α-Sp; Number of glycans reacted with, of 100 glycans [1, 2]: 5; Binding to α-Man-Sp ([1]; glycan array): specifically bound; Binding to β-GlcNAc-Sp ([1]; glycan array): does not react"
